The results in this text go back to ChEMBL document CHEMBL3822455, “Aryl or heteroaryl substituted aminal derivatives of HCV NS5A inhibitor MK-8742” (Bioorg Med Chem Lett, 2016).

Series [1] has as its system Hepatitis C virus. Nature of the series: Antiviral activity against HCV genotype 2b assessed as replicon RNA level measured after 3 days by real-time PCR method. It is filed as functional, organism-based, Hepacivirus hominis. Conditions: 72 h.
Series [2] has as its system Hepatitis C virus. Nature of the series: Antiviral activity against HCV genotype 1a assessed as replicon RNA level measured after 3 days by real-time PCR method. Type of series: functional, organism-based, Hepacivirus hominis. The settings on record: subtype 1a, 72 h.
Series [3] deals with Hepatitis C virus. In words: Antiviral activity against HCV genotype 1a harboring NS5A Y93H mutant assessed as replicon RNA level measured after 3 days by real-time PCR method. Type of series: functional, organism-based, Hepacivirus hominis. Conditions: subtype 1a, 72 h.
Series [4] is described as follows: (§1) Oral bioavailability in Sprague-Dawley rat at 5 mg/kg. It is filed as ADME, organism-based. The settings on record: Sprague-Dawley, in vivo.
Series [5] is described as follows: Half life in Sprague-Dawley rat at 2 mg/kg, iv or 5 mg/kg, po. The settings on record: in vivo. Type of series: ADME, organism-based.
Series [6] in a line: (§2) AUC in Sprague-Dawley rat at 5 mg/kg, po. Type of series: ADME, organism-based. The settings on record: Sprague-Dawley, in vivo.
Series [7] relates to Hepatitis C virus. In words: Antiviral activity against HCV genotype 3a assessed as replicon RNA level measured after 3 days by real-time PCR method. It is filed as functional, organism-based, Hepacivirus hominis. Conditions: 72 h.
Series [8] concerns Hepatitis C virus. Nature of the series: Antiviral activity against HCV genotype 1b assessed as replicon RNA level measured after 3 days by real-time PCR method. Type of series: functional, organism-based, Hepacivirus hominis. Conditions: 72 h.
A short description of series [9]: Clearance in Sprague-Dawley rat at 2 mg/kg, iv or 5 mg/kg, po. The settings on record: in vivo. Type of series: ADME, organism-based.
In series [10] the test system is Hepatitis C virus. In words: Antiviral activity against HCV genotype 1a harboring NS5A L31V mutant assessed as replicon RNA level measured after 3 days by real-time PCR method. Type of series: functional, organism-based, Hepacivirus hominis. The settings on record: subtype 1a, 72 h.
Series [11] relates to Hepatitis C virus. Nature of the series: Antiviral activity against HCV genotype 4a assessed as replicon RNA level measured after 3 days by real-time PCR method. The settings on record: 72 h. Type of series: functional, organism-based, Hepacivirus hominis.
Series [12] concerns Hepatitis C virus. In words: Antiviral activity against HCV genotype 2a assessed as replicon RNA level measured after 3 days by real-time PCR method. Type of series: functional, organism-based, Hepacivirus hominis. Conditions: 72 h.
The test system of series [13] is Canis familiaris. In words: AUC in beagle dog at 5 mg/kg, po. Type of series: ADME, organism-based, Canis lupus familiaris. The settings on record: in vivo.
Series [14] has as its system Rattus norvegicus. The series is described as §1. Conditions: in vivo. Type of series: ADME, organism-based.
The subject of series [15] is Rattus norvegicus. The series is described as §2. It is filed as ADME, organism-based. Conditions: in vivo.
Series [16] deals with Canis familiaris. Nature of the series: Oral bioavailability in beagle dog at 5 mg/kg. Conditions: in vivo. Type of series: ADME, organism-based, Canis lupus familiaris.
Series [17] in a line: Half life in beagle dog at 2 mg/kg, iv or 5 mg/kg, po. It is filed as ADME, organism-based, Canis lupus familiaris. Conditions: in vivo.
Series [18] deals with Hepatitis C virus. In words: Selectivity ratio of EC50 for HCV genotype 1a harboring NS5A L31V mutant to EC50 for HCV genotype 1a. Type of series: functional, Hepacivirus hominis, subtype 1a.
The test system of series [19] is Hepatitis C virus. In words: Selectivity ratio of EC50 for HCV genotype 1a harboring NS5A Y93H mutant to EC50 for HCV genotype 1a. It is filed as functional, Hepacivirus hominis, subtype 1a.
The nature of series [20]: Selectivity ratio of EC50 for HCV genotype 2b to EC50 for HCV genotype 1a. It is filed as functional.

`COC(=O)N[C@H](C(=O)N1CCC[C@H]1c1ncc(-c2ccc3c(c2)OC(c2ccccc2F)n2c-3cc3cc(-c4cnc([C@@H]5CCCN5C(=O)[C@@H](NC(=O)OC)C(C)C)[nH]4)ccc32)[nH]1)C(C)C` (some centres undefined): the EC50 in [1] is 3 nM; in series [2], 2 pM; in series [3], 6 nM; in series [7], 0.1 nM; in [8], 3 pM; in series [10], 0.4 nM. The EC50 came out at 7 pM in series [11] and 3 pM in [12]. The same compound showed a bioavailability in series [4] of 8%. For the same compound, in series [5], the half-life was 276 min. Further, the AUC in series [6] came out at 0.67 µM·h. Moreover, the clearance in series [9] amounted to 12 mL/min/kg.

As to `COC(=O)N[C@H](C(=O)N1CCC[C@H]1c1ncc(-c2ccc3c(c2)OC(c2cccc(F)c2)n2c-3cc3cc(-c4cnc([C@@H]5CCCN5C(=O)[C@@H](NC(=O)OC)C(C)C)[nH]4)ccc32)[nH]1)C(C)C` (some centres undefined), the EC50 in [1] stood at 1 nM; in series [2], 3 pM; in series [3], 4 nM; in [7], 0.04 nM; in [8] it was 2 pM; in [10], 0.2 nM. Further, the EC50 amounted to 6 pM in series [11] and 4 pM in series [12]. The bioavailability in series [4] was 12%. In series [5], this compound gave a half-life of 324 min. In series [6], the AUC is 1.5 µM·h. For the same compound, the clearance in [9] amounted to 7 mL/min/kg.

In the case of `COC(=O)N[C@H](C(=O)N1CCC[C@H]1c1ncc(-c2ccc3c(c2)OC(c2cc(F)cc(F)c2)n2c-3cc3cc(-c4cnc([C@@H]5CCCN5C(=O)[C@@H](NC(=O)OC)C(C)C)[nH]4)ccc32)[nH]1)C(C)C` (some centres undefined), the EC50 in [1] is 0.5 nM; in series [2], 11 pM; in series [3] it was 4 nM; in series [7], 0.09 nM; in series [8], 10 pM; in series [10], 0.3 nM. Besides, the EC50 in series [11] amounted to 4 pM; in series [12], 20 pM. Moreover, in series [4], the bioavailability stood at 15%. In series [5], this compound gave a half-life of 306 min. The AUC in series [6] came to 1.5 µM·h. In addition, the clearance in [9] stood at 9 mL/min/kg.

In the case of `COC(=O)N[C@H](C(=O)N1CCC[C@H]1c1ncc(-c2ccc3c(c2)OC(c2cccc(Cl)c2)n2c-3cc3cc(-c4cnc([C@@H]5CCCN5C(=O)[C@@H](NC(=O)OC)C(C)C)[nH]4)ccc32)[nH]1)C(C)C` (some centres undefined), the EC50 amounted to 0.4 nM in [1]; 3 pM in series [2]; 3 nM in series [3]; 0.03 nM in series [7]; 2 pM in series [8]; 0.1 nM in series [10]. In addition, the results for the EC50 in series [11] and in series [12] were 2 pM and 10 pM, respectively. The bioavailability in series [4] was found to be 12%. Also, the half-life in series [5] is 246 min. The same compound came in with an AUC in series [6] of 1.4 µM·h. Besides, the clearance in [9] amounted to 8 mL/min/kg.

`COC(=O)N[C@H](C(=O)N1CCC[C@H]1c1ncc(-c2ccc3c(c2)OC(c2cccc(OC)c2)n2c-3cc3cc(-c4cnc([C@@H]5CCCN5C(=O)[C@@H](NC(=O)OC)C(C)C)[nH]4)ccc32)[nH]1)C(C)C` (mixture of isomers): the EC50 is 0.4 nM in [1]; 4 pM in series [2]; < 2 nM in series [3]; 0.02 nM in series [7]; 2 pM in [8]; 0.04 nM in [10]. Besides, the EC50 in series [11] turned out to be 2 pM; in [12] it was 4 pM. In addition, the results for the AUC in series [13] and in series [15] were 5 µM·h and 0.52 µM·h, respectively. The values for the F in [14] and in series [16] were 6% and 34%, respectively. Also, the figures for the half-life in series [5] and in series [17] were 276 min and 474 min, respectively.

Take `COC(=O)N[C@H](C(=O)N1CCC[C@H]1c1ncc(-c2ccc3c(c2)OC(c2cc(OC)cc(OC)c2)n2c-3cc3cc(-c4cnc([C@@H]5CCCN5C(=O)[C@@H](NC(=O)OC)C(C)C)[nH]4)ccc32)[nH]1)C(C)C` (mixture of isomers): the EC50 was found to be 0.2 nM in [1]; 3 pM in series [2]; 0.8 nM in [3]; 0.02 nM in series [7]; 2 pM in series [8]; 0.3 nM in series [10]. Moreover, the values for the EC50 in series [11] and in series [12] were 10 pM and 2 pM, respectively. The “Ratio EC50” value in series [18] was 100; in series [19], 267; in series [20], 67. This compound showed a bioavailability in [4] of 0%.

For the compound `COC(=O)N[C@H](C(=O)N1CCC[C@H]1c1ncc(-c2ccc3c(c2)OC(c2ccc(OC(F)(F)F)cc2)n2c-3cc3cc(-c4cnc([C@@H]5CCCN5C(=O)[C@@H](NC(=O)OC)C(C)C)[nH]4)ccc32)[nH]1)C(C)C` (mixture of isomers), the EC50 is 5 pM in series [2]; 3 nM in series [3]; 0.03 nM in [7]; 11 pM in series [8]; 0.2 nM in [10]; 200 pM in series [11]. For the same compound, in series [12], the EC50 is 5 pM. Also, the F in [14] is 7%. Also, the half-life in series [5] is 378 min. This compound had an AUC in [15] of 1.1 µM·h.
